From patent US6544983B2, “Diazepinoindoles for the treatment of chronic obstructive pulmonary disease” (Pfizer Inc, priority 2000, dated 2003)
Where two headings read alike, the source gives them in different places. Each block holds one compound with its values, some of them ahead of it.

How the values were obtained:
[1] = test system: LPS-induced TNFα release in whole blood; assay: Inhibition of in vitro LPS-induced TNFα production in whole blood of COPD patients; type: cell-based; details: Homo sapiens; whole blood of COPD patients (n=7), LPS 50 μg/ml, 22-24 h at 37° C., ELISA
Description: The aim of this study was to compare the in vitro activities of three selective PDE4 inhibitors (compound 1, rolipram which is 4-[3-(cyclopentyloxy)-4-methoxy-phenyl]-2-pyrrolidinone, and cilomilast) at reducing lipopolysaccharide (LPS)-induced TNFα release in whole blood of COPD patients. Thirteen COPD patients, diagnosed according to the ATS guidelines^iv, were included in this study to determine the concentration-effect of LPS on TNF^α production (n=6) and the IC50 values of compound 1, rolipram and cilomilast (n=7).
Blood (15 ml/patient) was collected in heparin tubes and distributed in 96-well microplates (250 μl/well).
After a 30-min incubation at 37° C., 25 μl of increasing concentrations of the compound to test or vehicle were added in different wells. The microplates were incubated at 37° C. for 30 min, and then 25 μl of LPS (E. coli) at 50 μg/ml (stimulated wells) or 25 μl of sterile saline (unstimulated wells) were added. The microplates were incubated 22-24 h at 37° C.
125 μl of the supernatant plasma were transferred gently in sterile 96-well microplates and stored at −80° C. until TNFα assay. The TNFα production was then measured by an ELISA assay.

[2] = single dose of 20 mg; Murdoch et al. 1998; cited from earlier work
[3] = in humans; Torphy et al. 1999; cited from earlier work
[4] = test system: LPS-induced lung neutrophilia; assay: Neutrophilia induced by LPS aerosol in the Wistar rat; type: in vivo; details: Wistar rats, oral
Procedure: (§1) The model retained to assess the usefulness of the compounds of the invention for the treatment of COPD was a neutrophilia model. Neutrophilia was induced by exposure of rats or mice to a lipopolysaccharide (LPS) aerosol.
The animals were treated with compound 1 or cilomilast when conscious, that was by the oral route.
One hour after the treatment, the rats were placed in a plexiglass box and were given a 200 μg/ml aerosol of LPS (Escherichia coli, serotype O55:B5) for 1 hour. Control rats were not given the LPS aerosol. This control is called ‘sham’ in FIGS. 1 and 2.
Two hours after the exposure to the LPS, the animals were then anaesthetised by intraperitoneal injection of 6% sodium pentobarbital at a rate of 1 ml/kg. A tracheotomy was carried out and a tracheal cannula was inserted.
Using a 5-ml syringe, 3 consecutive washings were carried out with a 5-ml volume of a […] NaCl+EDTA solution (37° C.), in order to recover the cell population present in the lumen of the airways. The fluid which had thus been withdrawn was stored at +4° C. on ice.

[5] = test system: LPS-induced lung neutrophilia; assay: Neutrophilia induced by LPS aerosol in the C57 bl/6 mouse; type: in vivo; details: oral route, 1 h before LPS aerosol 100 μg/ml; bronchoalveolar washings 24 h after exposure
Procedure: as §1
The animals were treated with compound 1 when conscious, that was by the oral route.
One hour after treatment, the mice were placed in a plexiglass box (at most 25 mice to a box) and were given a 100 μg/ml aerosol of LPS (Escherichia coli, serotype O55:B5) for 1 hour. Control mice were not given the LPS aerosol.
Twenty-four hours after the exposure to the LPS, the animals were then anaesthetised by an intraperitoneal injection of 0.6% sodium pentobarbital at a rate of 15 ml/kg. A tracheotomy was carried out and a tracheal cannula was inserted. […]
The cells contained in the bronchoalveolar washing fluid were counted using a Coulter particle counter. […]
The arithmetic mean and the standard deviation (SD) of the number of neutrophils in the bronchoalveolar washing fluids were calculated for each treatment group. The percentage inhibition was calculated in the following manner: [formula] […]
The 90% confidence interval for the percentage inhibition was to be calculated by the “Delta method” or “Fieller method” ^i, ii & iii (Armitage & al, 1998; Feuerstein & al, 1997; Hubert & al, 1988) if appropriate.

[6] = Half-life in humans after single oral doses to healthy volunteers; details: human, in vivo, single oral doses 1 to 25 mg
Description: Such values indicate that compound 1 may be administered once daily.

- IC50 [1]: > 10 µM
Compound: COc1ccc([C@]2(C#N)CC[C@@H](C(=O)O)CC2)cc1OC1CCCC1 [cilomilast, cis-4-cyano-4-[3-(cyclopentyloxy)-4-methoxyphenyl]cyclohexane carboxylic acid]
- side effects [2]: relevant side effects such as nausea and vomiting occurred
- elimination half-life [3]: approximately 8 hours
- percentage of inhibition of the LPS-induced lung neutrophilia ([4]; 30 mg/kg): 74%

Compound: Nc1cc2c3c(c1)C(c1ccccc1)=N[C@@H](NC(=O)c1cccnc1)C(=O)N3CC2 [compound 1, (3R)N-(9-amino-4-oxo-1-phenyl-3,4,6,7-tetrahydro-[1,4]diazepino[6,7,1-hi]indol-3-yl)-nicotinamide]
- IC50 [1]: 1.3 ± 0.7 µM
- inhibition of the LPS-induced lung neutrophilia in mice [5]: strongly inhibited
- half-life ([6]; read-out: mean terminal half-life values, range over doses): 13.9 to 17.1 h
- half-life ([6]; read-out: terminal half-life, mean over all doses (converted)): 15.4 h
- efficiency relative to cilomilast at the same dose ([4]; 10 mg/kg): twice more efficient than cilomilast
- percentage of inhibition of the LPS-induced lung neutrophilia ([4]; 10 mg/kg): 74%
- percentage of inhibition of the LPS-induced lung neutrophilia ([4]; 30 mg/kg): 80%

- IC50 [1]: 2.8 ± 0.9 µM
Compound: COc1ccc(C2CNC(=O)C2)cc1OC1CCCC1 (stereo not drawn) [rolipram, 4-[3-(cyclopentyloxy)-4-methoxy-phenyl]-2-pyrrolidinone]
